We go through one molecule from US7705020B2, “Benzimidazolone carboxylic acid derivatives” (Pfizer Inc., priority 2004, dated 2010).

Consider `CC(C)n1c(=O)n(C(=O)NCC2CCN(CC3(C(=O)O)CCOCC3)CC2)c2ccccc21` [Example 1, 4-{[4-({[(3-isopropyl-2-oxo-2,3-dihydro-1H-benzimidazol-1-yl)carbonyl]amino}methyl)piperidin-1-yl]methyl}tetrahydro-2H-pyran-4-carboxylic acid], for which the melting point worked out at 223 °C.
